The values that follow come from patent publication US12364694B2 (priority 2018, dated 2025).

For one series, the target named is T1, dopamine D1 receptor (Homo sapiens, UniProt P21728).
T1 construct: expressed in transfected cells; host or cells: CHO
Put plainly: Radioligand binding assay, human recombinant receptor in CHO cells. The note with it: read-out: % Inhibition (mean) of control specific binding.

The target in series [1] is T2, serotonin 5-HT2A receptor (Homo sapiens, UniProt P28223).
T2 construct: expressed in transfected cells; host or cells: HEK-293
Put plainly: Radioligand binding assay, human recombinant receptor in HEK cells. The note with it: read-out: % Inhibition (mean) of control specific binding.

For another series, the target named is T3, dopamine D2S receptor (Homo sapiens, UniProt P14416).
T3 construct: expressed in transfected cells; host or cells: HEK-293
Described as above. The conditions noted are these: read-out: % Inhibition (mean) of control specific binding.

The target in series [2] is T4, serotonin transporter (SERT) (Homo sapiens, UniProt P31645).
T4 construct: expressed in transfected cells; host or cells: CHO
Description: Radioligand binding assay, human recombinant transporter in CHO cells. The note with it: read-out: % Inhibition (mean) of control specific binding.

A short description of another series: in vivo. The conditions noted are these: rat.
The conditions of series [3]: rat, in vivo, po, 10 mg/kg.
For series [4], the target named is serotonin 5-HT2 receptor family. The conditions noted are these: mice, oral dosing, subcutaneous DOI; cited from earlier work.
For series [5], the system named is protein phosphorylation (ERK1, ERK2, Glul, NR2B and TH) in mice nucleus accumbens. The conditions noted are these: cited from earlier work.
Another series has as its system mouse formalin paw test. The conditions noted are these: subcutaneous paw pre-treatment 30 minutes prior to […] formalin, three doses; cited from earlier work.
Series [6] concerns mouse marble-burying model for OCD. The note with it: positive control, after 30 minutes; cited from earlier work.
A further series relates to male Sprague-Dawley rats. The note with it: cited from earlier work; for tolerance during repeated dosing: subcutaneous dosing for 28 days, 0.3 and 3 mg/kg; for physical dependence upon cessation of dosing: withdrawal after 28 days subcutaneous dosing.

T4 sequence (P31645 whole entry): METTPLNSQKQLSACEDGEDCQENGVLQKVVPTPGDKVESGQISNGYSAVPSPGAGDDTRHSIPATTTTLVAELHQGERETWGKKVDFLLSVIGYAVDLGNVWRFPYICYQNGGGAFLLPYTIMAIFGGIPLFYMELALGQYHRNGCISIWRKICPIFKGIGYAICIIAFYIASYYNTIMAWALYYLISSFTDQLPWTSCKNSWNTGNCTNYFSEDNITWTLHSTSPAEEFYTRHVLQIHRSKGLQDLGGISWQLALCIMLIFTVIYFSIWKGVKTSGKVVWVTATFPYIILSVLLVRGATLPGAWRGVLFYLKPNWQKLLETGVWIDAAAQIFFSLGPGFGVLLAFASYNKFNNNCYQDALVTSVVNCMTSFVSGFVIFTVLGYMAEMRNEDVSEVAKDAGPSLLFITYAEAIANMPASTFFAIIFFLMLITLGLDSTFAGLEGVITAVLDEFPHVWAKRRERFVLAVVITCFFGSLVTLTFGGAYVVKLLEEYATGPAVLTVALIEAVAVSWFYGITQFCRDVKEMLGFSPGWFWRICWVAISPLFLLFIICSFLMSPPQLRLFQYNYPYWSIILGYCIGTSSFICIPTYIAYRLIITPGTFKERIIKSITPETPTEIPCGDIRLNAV
T3 sequence (P14416 1-414 isoform P14416-2): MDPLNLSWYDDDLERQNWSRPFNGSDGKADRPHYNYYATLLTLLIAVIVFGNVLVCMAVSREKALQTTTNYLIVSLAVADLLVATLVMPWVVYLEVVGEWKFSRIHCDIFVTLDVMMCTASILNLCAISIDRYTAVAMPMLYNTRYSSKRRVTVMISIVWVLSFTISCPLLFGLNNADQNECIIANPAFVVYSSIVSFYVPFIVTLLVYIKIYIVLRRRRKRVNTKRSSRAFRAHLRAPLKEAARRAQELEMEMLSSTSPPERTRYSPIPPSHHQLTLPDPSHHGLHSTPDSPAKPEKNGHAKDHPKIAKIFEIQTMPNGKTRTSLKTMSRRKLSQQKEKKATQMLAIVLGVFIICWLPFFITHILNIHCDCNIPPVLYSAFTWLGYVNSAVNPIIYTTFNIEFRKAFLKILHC
T1 sequence (P21728 whole entry): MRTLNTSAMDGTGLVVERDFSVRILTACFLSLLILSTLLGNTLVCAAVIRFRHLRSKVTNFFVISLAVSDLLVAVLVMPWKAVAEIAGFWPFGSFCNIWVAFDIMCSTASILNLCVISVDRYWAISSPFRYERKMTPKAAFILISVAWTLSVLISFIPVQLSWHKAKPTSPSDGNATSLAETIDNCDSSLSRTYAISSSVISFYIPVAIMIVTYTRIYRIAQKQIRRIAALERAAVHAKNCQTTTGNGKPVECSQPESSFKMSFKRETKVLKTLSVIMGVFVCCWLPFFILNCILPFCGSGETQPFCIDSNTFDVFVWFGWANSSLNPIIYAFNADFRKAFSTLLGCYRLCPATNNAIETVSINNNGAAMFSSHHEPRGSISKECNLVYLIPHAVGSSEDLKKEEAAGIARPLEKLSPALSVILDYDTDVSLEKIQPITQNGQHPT
T2 sequence (P28223 whole entry): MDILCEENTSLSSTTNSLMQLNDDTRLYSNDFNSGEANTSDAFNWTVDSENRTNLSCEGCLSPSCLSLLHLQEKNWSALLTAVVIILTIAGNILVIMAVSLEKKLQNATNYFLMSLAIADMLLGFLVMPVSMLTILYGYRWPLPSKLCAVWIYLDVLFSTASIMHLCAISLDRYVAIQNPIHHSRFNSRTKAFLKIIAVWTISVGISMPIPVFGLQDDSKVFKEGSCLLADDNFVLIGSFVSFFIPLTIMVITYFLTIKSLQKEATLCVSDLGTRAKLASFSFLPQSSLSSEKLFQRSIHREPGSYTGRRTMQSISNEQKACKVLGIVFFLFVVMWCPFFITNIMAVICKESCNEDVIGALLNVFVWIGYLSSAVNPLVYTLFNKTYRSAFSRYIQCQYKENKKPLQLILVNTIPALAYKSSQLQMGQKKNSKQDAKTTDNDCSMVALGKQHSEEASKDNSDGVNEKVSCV

`[2H]C1([2H])C(=O)Nc2cccc3c2N1[C@H]1CCN(CCCOc2ccc(F)cc2)C[C@@H]31` [Example 1, (6bR,10aS)-1,1-d2-8-(3-(4-fluorophenoxy)propyl)-6b,7,8,9,10,10a-hexahydro-1H-pyrido[3′,4′:4,5]pyrrolo[1,2,3-de]quinoxalin-2(3H)-one]: the inhibition at 0.1 µM at dopamine D1 receptor stood at 36.6%. The inhibition at 0.01 µM in series [1] came out at 64.7%. Moreover, the inhibition at 0.3 µM at dopamine D2S receptor turned out to be 47.5%. The inhibition at 1 µM in series [2] came out at 34.5%.

As to `[2H]C([2H])(Oc1ccc(F)cc1)C([2H])([2H])C([2H])([2H])N1CC[C@H]2[C@@H](C1)c1cccc3c1N2CC(=O)N3` [Example 2, (6bR,10aS)-8-(1,1,2,2,3,3-d6-3-(4-fluorophenoxy)propyl)-6b,7,8,9,10,10a-hexahydro-1H-pyrido[3′,4′: 4,5]pyrrolo[1,2,3-de]quinoxalin-2(3H)-one], in the series “in vivo” (po, 10 mg/kg), the AUC is 3660 ng·h/mL, the concentration peaked (Cmax) at 64.6 ng/mL, the Tmax amounted to 6 h and the concentration at 0.033 h was 1 ng/mL. Besides, in the series “in vivo” (po, 10 mg/kg), the concentration at 0.083 h came out at 10.6 ng/mL, the concentration at 0.5 h is 55.7 ng/mL, the concentration at 1 h is 72.3 ng/mL and the concentration at 2 h turned out to be 143 ng/mL. In the series “in vivo” (po, 10 mg/kg), this compound yielded a concentration at 6 h of 260 ng/mL, a concentration at 8 h of 200 ng/mL, a concentration at 12 h of 196 ng/mL and a concentration at 24 h of 3 ng/mL. In the series “in vivo” (po, 10 mg/kg), this compound had a concentration at […] of 56.9 ng/mL. In the series “in vivo” (sc, 3 mg/kg), the AUC came to 492 ng·h/mL, the Cmax was 81.4 ng/mL, the Tmax worked out at 1 h and the concentration at 0.033 h came out at 6 ng/mL. In the series “in vivo” (sc, 3 mg/kg), this compound registered a concentration at 0.083 h of 27.5 ng/mL, a concentration at 0.5 h of 80 ng/mL, a concentration at 1 h of 81.4 ng/mL and a concentration at 2 h of 65.2 ng/mL. In “in vivo” (sc, 3 mg/kg), this compound registered a concentration at 6 h of 15 ng/mL, a concentration at 8 h of 6.7 ng/mL, a concentration at 12 h of 3.9 ng/mL and a concentration at 24 h of 2.1 ng/mL. In addition, in “in vivo” (sc, 3 mg/kg), the concentration at 48 h stood at 2 ng/mL, the concentration at 72 h is 1 ng/mL and the concentration at […] came out at 48.2 ng/mL. Moreover, in series [3], the plasma concentration result is “BLQ”.

Take `[2H]C([2H])(CC([2H])([2H])N1CC[C@H]2[C@@H](C1)c1cccc3c1N2CC(=O)N3)Oc1ccc(F)cc1` [Example 3, (6bR,10aS)-8-(1,1,3,3-d4-3-(4-fluorophenoxy)propyl)-6b,7,8,9,10,10a-hexahydro-1H-pyrido[3′,4′:4,5]pyrrolo[1,2,3-de]quinoxalin-2(3H)-one]: the inhibition at 0.1 µM on dopamine D1 receptor worked out at 36.3%. Also, the inhibition at 0.01 µM in series [1] amounted to 64.1%. For the same compound, the inhibition at 0.3 µM on dopamine D2S receptor came to 55.1%. In series [2], the inhibition at 1 µM was 31.8%.

In the case of `[2H]c1c([2H])c(OCCCN2CC[C@H]3[C@@H](C2)c2cccc4c2N3CC(=O)N4)c([2H])c([2H])c1F` [Example 6, (6bR,10aS)-8-(3-(2,3,5,6-tetradeuterio-4-fluorophenoxy)propyl)-6b,7,8,9,10,10a-hexahydro-1H-pyrido[3′,4′:4,5]pyrrolo[1,2,3-de]quinoxalin-2(3H)-one], at dopamine D1 receptor, the inhibition at 0.1 µM stood at 32.6%. Also, the inhibition at 0.01 µM in series [1] was determined as 60.2%. In addition, the inhibition at 0.3 µM on dopamine D2S receptor amounted to 48.7%. In addition, in series [2], the inhibition at 1 µM is 29.1%.

Take `[2H]C([2H])(CCN1CC[C@H]2[C@@H](C1)c1cccc3c1N2CC(=O)N3)Oc1ccc(F)cc1` [Example 7, (6bR,10aS)-8-(3,3-dideuterio-3-(4-fluorophenoxy)propyl)-6b,7,8,9,10,10a-hexahydro-1H-pyrido[3′,4′:4,5]pyrrolo[1,2,3-de]quinoxalin-2(3H)-one]: at dopamine D1 receptor, the inhibition at 0.1 µM was determined as 34.8%. Further, the inhibition at 0.01 µM in [1] stood at 63.5%. Further, the inhibition at 0.3 µM at dopamine D2S receptor amounted to 53.3%. Further, the inhibition at 1 µM in [2] was 31.1%.

As to `[2H]c1c([2H])c(OC([2H])([2H])C([2H])([2H])C([2H])([2H])N2CC[C@H]3[C@@H](C2)c2cccc4c2N3C([2H])([2H])C(=O)N4)c([2H])c([2H])c1F` [Example 8, (6bR,10aS)-1,1-dideuterio-8-(1,1,2,2,3,3-hexadeuterio-3-(2,3,5,6-tetradeuterio-4-fluorophenoxy)propyl)-6b,7,8,9,10,10a-hexahydro-1H-pyrido[3′,4′:4,5]pyrrolo[1,2,3-de]quinoxalin-2(3H)-one], in “in vivo” (po, 10 mg/kg), the AUC is 3390 ng·h/mL, the Cmax was 68.4 ng/mL, the Tmax amounted to 6 h and the concentration at 0.033 h was determined as 1.3 ng/mL. Also, in “in vivo” (po, 10 mg/kg), the concentration at 0.083 h is 8.6 ng/mL, the concentration at 0.5 h was found to be 45.8 ng/mL, the concentration at 1 h was determined as 62.4 ng/mL and the concentration at 2 h turned out to be 133 ng/mL. In the series “in vivo” (po, 10 mg/kg), the concentration at 6 h was determined as 245 ng/mL, the concentration at 8 h turned out to be 187 ng/mL, the concentration at 12 h was 181 ng/mL and the concentration at 24 h was found to be 3.3 ng/mL. In addition, the concentration at […] in “in vivo” (po, 10 mg/kg) stood at 46.7 ng/mL. Further, in the series “in vivo” (sc, 3 mg/kg), the AUC turned out to be 494 ng·h/mL, the Cmax came to 78.9 ng/mL, the Tmax turned out to be 1 h and the concentration at 0.033 h is 5.7 ng/mL. In “in vivo” (sc, 3 mg/kg), this compound had a concentration at 0.083 h of 25.7 ng/mL, a concentration at 0.5 h of 76.4 ng/mL, a concentration at 1 h of 78.9 ng/mL and a concentration at 2 h of 62.9 ng/mL. In the series “in vivo” (sc, 3 mg/kg), this compound registered a concentration at 6 h of 14.1 ng/mL, a concentration at 8 h of 6.5 ng/mL, a concentration at 12 h of 4.1 ng/mL and a concentration at 24 h of 2.1 ng/mL. In the series “in vivo” (sc, 3 mg/kg), this compound returned a concentration at 48 h of 2.4 ng/mL, a concentration at 72 h of 1.4 ng/mL and a concentration at […] of 46 ng/mL. The plasma concentration entry in series [3] is “BLQ”.

As for `[2H]C1([2H])C(=O)Nc2cccc3c2N1[C@H]1CCN(C([2H])([2H])C([2H])([2H])C([2H])([2H])Oc2ccc(F)cc2)C[C@@H]31` [Example 9, (6bR,10aS)-1,1-dideuterio-8-(1,1,2,2,3,3-hexadeuterio-3-(4-fluorophenoxy)-propyl)-6b,7,8,9,10,10a-hexahydro-1H-pyrido[3′,4′:4,5]pyrrolo[1,2,3-de]quinoxalin-2(3H)-one], the inhibition at 0.1 µM on dopamine D1 receptor was 35.2%. Moreover, the inhibition at 0.01 µM in series [1] turned out to be 60.1%. Besides, on dopamine D2S receptor, the inhibition at 0.3 µM worked out at 49.6%. Besides, in series [2], the inhibition at 1 µM was determined as 28.4%.

For the compound `O=C1CN2c3c(cccc3[C@@H]3CN(CCCOc4ccc(F)cc4)CC[C@@H]32)N1` [Formula A], the “EC50 blocking DOI-induced head twitch” value in series [4] is 0.44 mg/kg, p.o. Besides, in [5], the “effect on ERK2 phosphorylation” value is listed as “marginal effects”, the “effect on GluR1 phosphorylation” value is recorded as “marginal effects”, the “effect on NR2B phosphorylation” value is “neither the compound of Formula A nor the compound of Formula B has a significant effect” and the “effect on TH phosphorylation” value is “neither the compound of Formula A nor the compound of Formula B has a significant effect”. For the same compound, at dopamine D1 receptor, the inhibition at 0.1 µM was 43.4%. Besides, in series [1], the inhibition at 0.01 µM worked out at 63%. Moreover, the “early phase acute pain response and late phase delayed inflammatory response” value with mouse formalin paw test was “dose-dependently attenuates both the early phase acute pain response and the late phase delayed inflammatory response”. Besides, on dopamine D2S receptor, the inhibition at 0.3 µM stood at 53.6%. For the same compound, in series [2], the inhibition at 1 µM stood at 33.4%.

For `O=C1CN2c3c(cccc3[C@@H]3CN(CCCC(=O)c4ccc(F)cc4)CC[C@@H]32)N1` [Formula B, 4-((6bR,10aS)-2-oxo-2,3,6b,9,10,10a-hexahydro-1H,7H-pyrido[3′,4′:4,5]pyrrolo[1,2,3-de]quinoxalin-8-yl)-1-(4-fluoro-phenyl)-butan-1-one], the “EC50 blocking DOI-induced head twitch” value in series [4] is reported as 0.23 mg/kg, p.o. Moreover, in series [5], the “effect on ERK2 phosphorylation” value is listed as “marginal effects”, the “effect on GluR1 phosphorylation” value is “marginal effects”, the “effect on NR2B phosphorylation” value is recorded as “neither the compound of Formula A nor the compound of Formula B has a significant effect” and the “effect on TH phosphorylation” value was “neither the compound of Formula A nor the compound of Formula B has a significant effect”.

Regarding `Cc1cccc(C#Cc2ccccc2)n1` [MPEP, 2-methyl-6-(phenylethynyl)pyridine], the “Marbles Buried” value in series [6] is listed as 0.2.

Take `CN1CC[C@]23c4c5ccc(O)c4O[C@H]2[C@@H](O)C=C[C@H]3[C@H]1C5` [Morphine, reference compound]: in the series on male Sprague-Dawley rats, the “tolerance during repeated dosing” value is “clear signs of tolerance and dependence”; the “physical dependence upon cessation of dosing” value was “clear signs of tolerance and dependence”.

On to `O=C(CCCN1CCC(O)(c2ccc(Cl)cc2)CC1)c1ccc(F)cc1` [haloperidol], for which the “increase in TH phosphorylation” value in series [5] was 400-500%.

On to “(6bR,10aS)-8-(1,1,3,3-d4-3-(4-fluorophenoxy)propyl)-6b,7,8,9,10,10a-hexahydro-1H-pyrido[3′,4′:4,5]pyrrolo[1,2,3-de]quinoxalin-2(3H)-one [Example 3]”, for which, in the series with male Sprague-Dawley rats, the “tolerance during repeated dosing” value is reported as “does not produce tolerance” and the “physical dependence upon cessation of dosing” value is “not to produce a syndrome of physical dependence”.

A word on the inhibition: it is the relative decrease from the control value, in per cent. The AUC is the area under the concentration-time curve, a measure of exposure. A higher AUC goes with more exposure. A word on the Cmax: it is the highest concentration seen after dosing. One may read the Tmax as the time from dosing to the highest level.
